Measured values reported in patent US20230285516A1 (priority 2020, published 2023).
Entries after “also recorded” stand apart in the source; their conditions may differ.

Experiments:
Foxp3 = Foxp3 gene expression in co-cultured tissues (RT-PCR); type: cell-based, human; conditions: vs control
Text: FIG. 7. Effect of type I polymerized collagen on the gene expression of pro- and anti-inflammatory cytokines and factors in the tissues of cartilage and synovial tissue co-cultures of patients with rheumatoid arthritis (RA). (A) Quantification of TNF-α, IL-6 and IL-10 gene expression and (B) Quantification of IL-23 and Foxp3 gene expression by RT-PCR in synovial membrane tissues and cartilage co-cultured for 7 days. The bars show the mean±SD of the transcript levels of the samples normalized through the expression of the housekeeping gene GADPH determined by 2ΔΔCt. The data represent the mean±SD of 9 cartilage and synovial co-cultures from RA patients. Each culture was performed in triplicate for each condition. Basal: tissue in basal conditions.
FIG. 8. Effect of type I polymerized collagen on the gene expression of pro- and anti-inflammatory cytokines and factors in the tissues of cartilage and synovial co-cultures of patients with Osteoarthritis (OA). (A) Quantification of IL-1β, INF-α, IL-6 and IL-10 gene expression, (B) IL-23 and Foxp3 by RT-PCR in co-cultured cartilage and synovial membrane tissues for 7 days. The bars show the mean±SD of the transcript levels of the samples normalized through the expression of the housekeeping gene GADPH determined by 2ΔΔCt. The data represent the mean±SD of 8 co-cultures from patients with OA. […]

mice with CIA = assay: Histopathological analysis of hind legs, collagen-induced arthritis (CIA) models; type: in vivo; conditions: H&E and PAS, intramuscular weekly for 6 weeks
Protocol: (§1) Early Arthritis Model. Fifty mice with the same characteristics were immunized at the base of the tail with 100 μg of chicken type II collagen emulsified in complete Freund's adjuvant. The boost was applied on day 21 at the base of the tail with 100 μg of type II collagen emulsified with Freund's incomplete adjuvant. On the same boosting day, the treatments (a-d) were applied every week for six weeks. Three animals were euthanized in the sixth week and three in the thirteenth week. The spleen, lymph nodes, joint tissue, liver, lungs, kidneys and heart were obtained in order to assess the inflammatory infiltrate, the predominant cell populations and the expression of pro- and anti-inflammatory cytokines.
(§2) Established Arthritis Model. Arthritis was induced as in the previous model in 50 mice and the treatments were applied intramuscularly, after 2 weeks of the boost, every week for 6 weeks. Three animals were euthanized in the eighth week and three in the fifteenth week. The spleen, lymph nodes, joint tissue, liver, lungs, kidneys and heart were obtained in order to assess the inflammatory infiltrate, the predominant cell populations and the expression of pro- and anti-inflammatory cytokines.
Histological evaluation. The inflammatory infiltrate and tissue architecture were evaluated by H&E and Masson's trichrome staining and the content of proteoglycans, with the PAS technique. […]

Th17 (CD4+/IL-17+) cells = assay: FACS of spleen Th17 cells in CIA models; type: in vivo, mice; conditions: CIA model, fold
Protocol: as §1
as §2, with “cytokines. […]” for “cytokines.”
FIG. 10. […] The intracellular production of IL-17A, IL-4, IFN-γ and Foxp3 by CD4+ T cells was detected by flow cytometry. The results are representative of 6 mice analyzed in each group. […]

[1] = test system: dendritic (CD4−/CD11c+) cells; assay: FACS of spleen CD11c+ dendritic cells in CIA models; type: in vivo, mice; conditions: CIA model
Protocol: as §1, §2
Cytometric evaluation. […]
FIG. 12. […] The expression of CD11c was detected by flow cytometry. The results are representative of 6 mice analyzed in each group. […]

NF-κB = assay: Ex vivo NF-κBp65 and IκBα expression in splenocytes, CIA models; parameters: species or system mice; conditions: early and long-standing arthritis
Protocol: We infer that the mechanism of action of type I polymerized collagen could be given through the regulation of the transcription factor NF-κB and AP-1. In particular, NF-κB regulates the expression of pro-inflammatory enzymes, cytokines, chemokines, immunoreceptors, and cell adhesion molecules, as well as apoptosis. In the light of this knowledge, the expression of NF-κBp65 and its inhibitor IκBα in splenocytes were analyzed ex vivo (FIG. 12).
FIG. 12. Effect of type I polymerized collagen in the early (preventive) and long-standing (late or palliative) arthritis model on ex vivo NF-κB and IκB-α expression in splenocytes. (A) Spleen cells from early arthritis model mice at first sacrifice. (B) Splenocytes obtained immediately after the second sacrifice. (C) Spleen cells from long-standing arthritis model mice at first sacrifice. (D) Splenocytes obtained immediately after the second sacrifice. The intracellular levels of NF-κBp65 and IκBα cells were detected by flow cytometry. The results are representative of 6 mice analyzed in each group. The horizontal dotted line represents the average normal values obtained from mice (n=3) without CIA. Data represent mean±SEM. *p<0.05.

[2] = Adverse events in the mouse study; type: in vivo, mice; conditions: after injection, throughout the study
Protocol: There was no evidence of adverse events after injection of placebo or the different treatments throughout the study. The only adverse event observed was pain lasting less than 15 minutes at the injection site.

[3] = severe to semi-critical disease

collagen-polyvinylpyrrolidone [type I polymerized collagen]
gene expression of Foxp3 (Foxp3; co-cultures from patients with OA): positive regulation | transcription of FOXP3 gene (Foxp3; co-cultures from patients with RA): positively | histopathology of joint tissue (inflammation, tissue architecture) (mice with CIA): decreased the degree of inflammation and preserved the joint structure; also recorded: maintained a tissue architecture similar to normal | negative regulation of the subpopulation of Th17 cells (Th17 (CD4+/IL-17+) cells): 1.5-2.0 × | CD11c+ population (antigenic presentation) [1]: decrease | percentage of NF-kB+ complexes with its inhibitor IκBα+ in splenocytes (NF-κB): increased to a statistically significant level | adverse events [2]: no adverse effects | fever, alterations in heart rate, respiratory rate, headache and arthralgias (SARS-CoV2 (Covid-19); after 7 days): disappearance | adverse effects (SARS-CoV2 (Covid-19); [3]): No adverse effects were detected, except for pain at the application site | persistence of pain at the application site (SARS-CoV2 (Covid-19); [3]): 5 to 15 min
